Tested on: 883617-216-R-J1-PDC complex spheroid viability
Assay: Anticancer human tumor 883617-216-R-J1-PDC patient-derived bladder carcinoma cell line growth inhibition [POLQ]
Conditions: for IC50: curve of first compound; for viability, T/C: stronger effect = lower value
Method in brief: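 Growth inhibition in 3D: complex spheroids (tumor PDC, HUVEC, MSC) treated with POLQ inhibitor combinations; where Cmax unknown, highest tested concentration 10 microM, except SN-38 at 1 microM.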

[1] = second compound 0.0316 µM, first compound 0.0316 µM
[2] = second compound 0.0316 µM, first compound 0.1 µM
[3] = second compound 0.0316 µM, first compound 0.316 µM
[4] = second compound 0.0316 µM, first compound 1 µM
[5] = second compound 0.0316 µM, first compound 3.16 µM
[6] = second compound 0.0316 µM, first compound 10 µM
[7] = second compound 0.1 µM, first compound 0.0316 µM
[8] = second compound 0.1 µM, first compound 0.1 µM
[9] = second compound 0.1 µM, first compound 0.316 µM
[10] = second compound 0.1 µM, first compound 1 µM
[11] = second compound 0.1 µM, first compound 3.16 µM
[12] = second compound 0.1 µM, first compound 10 µM
[13] = second compound 0.316 µM, first compound 0.0316 µM
[14] = second compound 0.316 µM, first compound 0.1 µM
[15] = second compound 0.316 µM, first compound 0.316 µM
[16] = second compound 0.316 µM, first compound 1 µM
[17] = second compound 0.316 µM, first compound 3.16 µM
[18] = second compound 0.316 µM, first compound 10 µM
[19] = second compound 1 µM, first compound 0.0316 µM
[20] = second compound 1 µM, first compound 0.1 µM
[21] = second compound 1 µM, first compound 0.316 µM
[22] = second compound 1 µM, first compound 1 µM
[23] = second compound 1 µM, first compound 3.16 µM
[24] = second compound 1 µM, first compound 10 µM
[25] = second compound 3.16 µM, first compound 0.0316 µM
[26] = second compound 3.16 µM, first compound 0.1 µM
[27] = second compound 3.16 µM, first compound 0.316 µM
[28] = second compound 3.16 µM, first compound 1 µM
[29] = second compound 3.16 µM, first compound 3.16 µM
[30] = second compound 3.16 µM, first compound 10 µM
[31] = second compound 10 µM, first compound 0.0316 µM
[32] = second compound 10 µM, first compound 0.1 µM
[33] = second compound 10 µM, first compound 0.316 µM
[34] = second compound 10 µM, first compound 1 µM
[35] = second compound 10 µM, first compound 3.16 µM
[36] = second compound 10 µM, first compound 10 µM
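Also: spheroids exposed to compounds for seven days before readout.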
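For viability, T/C in this document: 100% = DMSO vehicle control viability.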

## COc1cc(C2c3cc4c(cc3C(OC3OC5COC(C)OC5C(O)C3O)C3COC(=O)C23)OCO4)cc(OC)c1O (stereo unspecified) + Nc1ccc(C#CCN(C(=O)Cc2ncc(C(F)(F)F)cc2C(F)(F)F)c2ccc(F)cc2)nn1
Second compound 0.0316 µM
  IC50: > 10 µM
Second compound 0.1 µM
  IC50: > 10 µM
Second compound 0.316 µM
  IC50: > 10 µM
Second compound 1 µM
  IC50: > 10 µM
Second compound 3.16 µM
  IC50: > 10 µM
Second compound 10 µM
  IC50: > 10 µM
[1]
  viability, T/C: 103%
[2]
  viability, T/C: 99.1%
[3]
  viability, T/C: 65.7%
[4]
  viability, T/C: 82.1%
[5]
  viability, T/C: 67.5%
[6]
  viability, T/C: 60%
[7]
  viability, T/C: 112%
[8]
  viability, T/C: 98.8%
[9]
  viability, T/C: 81%
[10]
  viability, T/C: 75.9%
[11]
  viability, T/C: 69.4%
[12]
  viability, T/C: 59.6%
[13]
  viability, T/C: 104%
[14]
  viability, T/C: 105%
[15]
  viability, T/C: 92.3%
[16]
  viability, T/C: 64.4%
[17]
  viability, T/C: 69.7%
[18]
  viability, T/C: 54%
[19]
  viability, T/C: 104%
[20]
  viability, T/C: 102%
[21]
  viability, T/C: 83.2%
[22]
  viability, T/C: 80%
[23]
  viability, T/C: 87.8%
[24]
  viability, T/C: 62.1%
[25]
  viability, T/C: 91.8%
[26]
  viability, T/C: 117%
[27]
  viability, T/C: 81.8%
[28]
  viability, T/C: 73.2%
[29]
  viability, T/C: 69.1%
[30]
  viability, T/C: 58.6%
[31]
  viability, T/C: 101%
[32]
  viability, T/C: 107%
[33]
  viability, T/C: 92.3%
[34]
  viability, T/C: 75%
[35]
  viability, T/C: 80.7%
[36]
  viability, T/C: 70.5%

## COc1cccc2c1C(=O)c1c(O)c3c(c(O)c1C2=O)CC(O)(C(=O)CO)CC3OC1CC(N)C(O)C(C)O1 (stereo unspecified) + Nc1ccc(C#CCN(C(=O)Cc2ncc(C(F)(F)F)cc2C(F)(F)F)c2ccc(F)cc2)nn1
Second compound 0.0316 µM
  IC50: 0.44 µM
Second compound 0.1 µM
  IC50: 0.382 µM
Second compound 0.316 µM
  IC50: 0.341 µM
Second compound 1 µM
  IC50: 0.398 µM
Second compound 3.16 µM
  IC50: 0.371 µM
Second compound 10 µM
  IC50: 0.419 µM
[1]
  viability, T/C: 76.5%
[2]
  viability, T/C: 67.2%
[3]
  viability, T/C: 62.8%
[4]
  viability, T/C: 19.8%
[5]
  viability, T/C: 0.23%
[6]
  viability, T/C: 0.18%
[7]
  viability, T/C: 71.3%
[8]
  viability, T/C: 74.7%
[9]
  viability, T/C: 55.2%
[10]
  viability, T/C: 18.8%
[11]
  viability, T/C: 0.24%
[12]
  viability, T/C: 0.17%
[13]
  viability, T/C: 79.3%
[14]
  viability, T/C: 72.2%
[15]
  viability, T/C: 52.9%
[16]
  viability, T/C: 16.7%
[17]
  viability, T/C: 0.21%
[18]
  viability, T/C: 0.71%
[19]
  viability, T/C: 77.3%
[20]
  viability, T/C: 64.2%
[21]
  viability, T/C: 59.7%
[22]
  viability, T/C: 15.4%
[23]
  viability, T/C: 0.76%
[24]
  viability, T/C: 0.21%
[25]
  viability, T/C: 78.5%
[26]
  viability, T/C: 68.6%
[27]
  viability, T/C: 56.6%
[28]
  viability, T/C: 15.3%
[29]
  viability, T/C: 0.47%
[30]
  viability, T/C: 0.94%
[31]
  viability, T/C: 81.8%
[32]
  viability, T/C: 63%
[33]
  viability, T/C: 62.6%
[34]
  viability, T/C: 14.5%
[35]
  viability, T/C: 0.53%
[36]
  viability, T/C: 0.36%

## O=c1[nH]cc(F)c(=O)[nH]1 + Nc1ccc(C#CCN(C(=O)Cc2ncc(C(F)(F)F)cc2C(F)(F)F)c2ccc(F)cc2)nn1
Second compound 0.0316 µM
  IC50: > 10 µM
Second compound 0.1 µM
  IC50: > 10 µM
Second compound 0.316 µM
  IC50: > 10 µM
Second compound 1 µM
  IC50: > 10 µM
Second compound 3.16 µM
  IC50: > 10 µM
Second compound 10 µM
  IC50: > 10 µM
[1]
  viability, T/C: 112%
[2]
  viability, T/C: 105%
[3]
  viability, T/C: 93.2%
[4]
  viability, T/C: 87.1%
[5]
  viability, T/C: 94.2%
[6]
  viability, T/C: 70.3%
[7]
  viability, T/C: 102%
[8]
  viability, T/C: 108%
[9]
  viability, T/C: 101%
[10]
  viability, T/C: 105%
[11]
  viability, T/C: 93.3%
[12]
  viability, T/C: 81.2%
[13]
  viability, T/C: 103%
[14]
  viability, T/C: 106%
[15]
  viability, T/C: 107%
[16]
  viability, T/C: 92.7%
[17]
  viability, T/C: 94.7%
[18]
  viability, T/C: 82.4%
[19]
  viability, T/C: 93.5%
[20]
  viability, T/C: 115%
[21]
  viability, T/C: 99.2%
[22]
  viability, T/C: 110%
[23]
  viability, T/C: 105%
[24]
  viability, T/C: 80.6%
[25]
  viability, T/C: 100%
[26]
  viability, T/C: 107%
[27]
  viability, T/C: 101%
[28]
  viability, T/C: 110%
[29]
  viability, T/C: 103%
[30]
  viability, T/C: 82.2%
[31]
  viability, T/C: 128%
[32]
  viability, T/C: 112%
[33]
  viability, T/C: 120%
[34]
  viability, T/C: 108%
[35]
  viability, T/C: 104%
[36]
  viability, T/C: 94.1%

Source: PubChem BioAssay AID1963833 (Molecular Pharmacology Branch, DTP, NCI, 2024)
